Experiments:
[1] = target: Calcium/calmodulin-dependent protein kinase kinase 2 (Homo sapiens) (UniProt Q96RR4); experiment: CAMKK2 SGC Tm panel (DSF); conditions: for ΔTm: Compound concentration 10.0 uM
[2] = target: T1, Bone morphogenetic protein receptor type-2 (Homo sapiens) (UniProt Q13873); experiment: BMPR2 SGC Tm panel (DSF); conditions: for ΔTm: Compound concentration 10.0 uM
T1 sequence (whole entry): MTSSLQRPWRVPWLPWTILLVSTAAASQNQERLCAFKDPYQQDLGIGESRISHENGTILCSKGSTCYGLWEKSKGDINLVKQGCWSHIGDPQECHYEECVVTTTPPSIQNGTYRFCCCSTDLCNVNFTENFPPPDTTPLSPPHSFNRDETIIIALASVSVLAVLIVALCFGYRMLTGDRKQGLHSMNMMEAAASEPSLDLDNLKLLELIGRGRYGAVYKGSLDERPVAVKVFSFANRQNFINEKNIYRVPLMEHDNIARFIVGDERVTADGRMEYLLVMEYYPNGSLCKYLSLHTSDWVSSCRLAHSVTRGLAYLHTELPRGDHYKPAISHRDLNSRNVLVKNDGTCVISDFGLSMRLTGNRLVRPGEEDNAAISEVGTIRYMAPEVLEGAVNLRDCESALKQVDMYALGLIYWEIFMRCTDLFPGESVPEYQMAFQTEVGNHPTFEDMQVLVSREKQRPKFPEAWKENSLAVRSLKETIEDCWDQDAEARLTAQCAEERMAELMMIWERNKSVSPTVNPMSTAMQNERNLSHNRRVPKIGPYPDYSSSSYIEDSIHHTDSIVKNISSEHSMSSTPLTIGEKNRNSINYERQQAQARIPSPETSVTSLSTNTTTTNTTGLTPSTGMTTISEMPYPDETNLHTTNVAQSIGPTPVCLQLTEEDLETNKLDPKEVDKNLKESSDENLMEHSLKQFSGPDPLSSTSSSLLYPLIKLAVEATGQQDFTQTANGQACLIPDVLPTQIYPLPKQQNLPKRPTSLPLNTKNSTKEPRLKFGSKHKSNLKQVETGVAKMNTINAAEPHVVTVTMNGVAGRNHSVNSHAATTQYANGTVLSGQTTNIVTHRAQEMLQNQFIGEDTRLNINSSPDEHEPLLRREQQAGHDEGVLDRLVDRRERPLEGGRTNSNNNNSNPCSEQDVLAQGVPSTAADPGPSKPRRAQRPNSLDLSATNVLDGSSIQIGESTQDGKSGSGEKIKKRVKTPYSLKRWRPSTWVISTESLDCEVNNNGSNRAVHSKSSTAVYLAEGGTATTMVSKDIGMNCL

[3] = target: Serine/threonine-protein kinase B-raf (Homo sapiens) (UniProt P15056); experiment: BRAF SGC Tm panel (DSF); conditions: for ΔTm: Compound concentration 10.0 uM
Sequence of Serine/threonine-protein kinase B-raf (Homo sapiens) (P15056 whole entry): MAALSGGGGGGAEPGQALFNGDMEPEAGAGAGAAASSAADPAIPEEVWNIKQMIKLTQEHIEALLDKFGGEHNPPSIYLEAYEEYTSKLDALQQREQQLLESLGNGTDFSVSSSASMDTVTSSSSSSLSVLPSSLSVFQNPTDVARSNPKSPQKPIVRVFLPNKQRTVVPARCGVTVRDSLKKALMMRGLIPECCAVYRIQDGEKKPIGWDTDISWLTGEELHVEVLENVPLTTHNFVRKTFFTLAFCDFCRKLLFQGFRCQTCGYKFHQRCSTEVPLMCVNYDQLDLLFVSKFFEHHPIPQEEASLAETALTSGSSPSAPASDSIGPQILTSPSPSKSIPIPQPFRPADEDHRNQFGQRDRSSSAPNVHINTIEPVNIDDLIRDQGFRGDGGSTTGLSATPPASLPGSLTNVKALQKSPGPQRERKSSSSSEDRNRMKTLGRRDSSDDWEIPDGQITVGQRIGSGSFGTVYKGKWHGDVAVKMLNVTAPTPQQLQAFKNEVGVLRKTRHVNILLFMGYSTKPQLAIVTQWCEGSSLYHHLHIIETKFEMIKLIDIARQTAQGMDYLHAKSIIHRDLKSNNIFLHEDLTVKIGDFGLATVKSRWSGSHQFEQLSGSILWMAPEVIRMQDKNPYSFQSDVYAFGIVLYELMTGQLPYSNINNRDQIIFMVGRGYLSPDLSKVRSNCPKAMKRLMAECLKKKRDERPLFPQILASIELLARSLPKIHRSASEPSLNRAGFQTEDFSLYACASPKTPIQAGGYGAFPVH

[4] = target: T2, Tyrosine-protein kinase Mer (Homo sapiens) (UniProt Q12866); experiment: MERTK SGC Tm panel (DSF); conditions: for ΔTm: Compound concentration 10.0 uM
T2 sequence (whole entry): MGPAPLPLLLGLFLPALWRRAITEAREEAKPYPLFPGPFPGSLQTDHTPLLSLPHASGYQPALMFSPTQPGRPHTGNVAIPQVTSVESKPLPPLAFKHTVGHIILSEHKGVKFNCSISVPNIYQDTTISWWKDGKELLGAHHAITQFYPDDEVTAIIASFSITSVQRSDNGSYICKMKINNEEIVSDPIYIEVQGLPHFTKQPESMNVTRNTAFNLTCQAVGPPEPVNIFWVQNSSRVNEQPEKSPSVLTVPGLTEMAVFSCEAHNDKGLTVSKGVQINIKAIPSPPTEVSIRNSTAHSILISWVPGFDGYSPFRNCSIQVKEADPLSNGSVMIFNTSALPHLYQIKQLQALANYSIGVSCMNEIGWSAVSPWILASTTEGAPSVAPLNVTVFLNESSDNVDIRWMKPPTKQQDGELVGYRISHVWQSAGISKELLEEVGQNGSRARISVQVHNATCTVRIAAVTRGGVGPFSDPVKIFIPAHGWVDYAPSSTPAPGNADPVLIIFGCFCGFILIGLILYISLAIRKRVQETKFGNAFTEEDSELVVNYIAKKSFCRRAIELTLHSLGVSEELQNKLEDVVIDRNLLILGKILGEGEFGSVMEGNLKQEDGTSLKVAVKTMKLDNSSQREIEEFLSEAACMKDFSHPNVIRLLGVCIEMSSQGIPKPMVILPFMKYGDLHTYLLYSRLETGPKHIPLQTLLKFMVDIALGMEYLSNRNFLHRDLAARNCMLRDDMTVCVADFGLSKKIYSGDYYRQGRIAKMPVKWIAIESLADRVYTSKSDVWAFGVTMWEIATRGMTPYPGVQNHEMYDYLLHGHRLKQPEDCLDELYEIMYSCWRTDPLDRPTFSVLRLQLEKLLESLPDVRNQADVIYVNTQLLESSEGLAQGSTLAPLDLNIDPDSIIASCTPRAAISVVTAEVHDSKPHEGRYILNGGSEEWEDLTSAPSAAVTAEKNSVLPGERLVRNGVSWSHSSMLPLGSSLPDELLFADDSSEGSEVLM

[5] = target: Mitogen-activated protein kinase 10 (Homo sapiens) (UniProt P53779); experiment: MAPK10 SGC Tm panel (DSF); conditions: for ΔTm: Compound concentration 10.0 uM
Sequence of Mitogen-activated protein kinase 10 (Homo sapiens) (P53779 whole entry): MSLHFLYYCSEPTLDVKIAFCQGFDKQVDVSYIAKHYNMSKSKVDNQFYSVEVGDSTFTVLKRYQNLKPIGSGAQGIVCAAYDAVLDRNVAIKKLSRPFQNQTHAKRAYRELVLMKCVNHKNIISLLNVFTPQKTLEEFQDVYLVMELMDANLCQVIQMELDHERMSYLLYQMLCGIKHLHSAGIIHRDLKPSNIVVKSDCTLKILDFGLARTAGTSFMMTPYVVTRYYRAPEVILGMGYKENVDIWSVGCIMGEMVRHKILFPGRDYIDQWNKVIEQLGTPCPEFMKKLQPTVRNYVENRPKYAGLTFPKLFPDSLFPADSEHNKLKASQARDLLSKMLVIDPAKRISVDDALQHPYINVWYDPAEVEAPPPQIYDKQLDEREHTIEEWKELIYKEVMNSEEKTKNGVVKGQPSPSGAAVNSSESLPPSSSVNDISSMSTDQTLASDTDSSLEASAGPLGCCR

[6] = target: MAP/microtubule affinity-regulating kinase 3 (Homo sapiens) (UniProt P27448); experiment: MARK3 SGC Tm panel (DSF); conditions: for ΔTm: Compound concentration 10.0 uM
Sequence of MAP/microtubule affinity-regulating kinase 3 (Homo sapiens) (P27448 whole entry, looked up): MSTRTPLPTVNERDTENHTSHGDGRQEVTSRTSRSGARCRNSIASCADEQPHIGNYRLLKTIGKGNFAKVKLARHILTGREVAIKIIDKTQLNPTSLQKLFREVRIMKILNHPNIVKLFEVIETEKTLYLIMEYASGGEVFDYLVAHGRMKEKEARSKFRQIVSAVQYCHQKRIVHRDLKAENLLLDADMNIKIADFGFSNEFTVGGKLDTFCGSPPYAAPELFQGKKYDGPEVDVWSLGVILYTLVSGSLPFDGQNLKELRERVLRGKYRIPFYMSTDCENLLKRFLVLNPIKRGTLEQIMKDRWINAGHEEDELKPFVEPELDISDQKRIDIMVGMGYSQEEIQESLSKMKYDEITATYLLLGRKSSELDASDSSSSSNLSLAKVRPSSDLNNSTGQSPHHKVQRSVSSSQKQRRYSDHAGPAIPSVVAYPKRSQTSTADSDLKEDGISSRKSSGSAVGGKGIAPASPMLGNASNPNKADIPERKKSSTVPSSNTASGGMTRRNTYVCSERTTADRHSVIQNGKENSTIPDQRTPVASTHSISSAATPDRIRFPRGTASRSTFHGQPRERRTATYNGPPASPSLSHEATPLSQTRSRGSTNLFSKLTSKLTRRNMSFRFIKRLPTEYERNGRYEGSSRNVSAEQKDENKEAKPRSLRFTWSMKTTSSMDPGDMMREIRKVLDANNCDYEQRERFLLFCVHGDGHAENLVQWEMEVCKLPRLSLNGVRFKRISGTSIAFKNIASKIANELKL

[7] = target: Serine/threonine-protein kinase PAK 1 (Homo sapiens) (UniProt Q13153); experiment: PAK1 SGC Tm panel (DSF); conditions: for ΔTm: Compound concentration 10.0 uM
Sequence of Serine/threonine-protein kinase PAK 1 (Homo sapiens) (Q13153 whole entry): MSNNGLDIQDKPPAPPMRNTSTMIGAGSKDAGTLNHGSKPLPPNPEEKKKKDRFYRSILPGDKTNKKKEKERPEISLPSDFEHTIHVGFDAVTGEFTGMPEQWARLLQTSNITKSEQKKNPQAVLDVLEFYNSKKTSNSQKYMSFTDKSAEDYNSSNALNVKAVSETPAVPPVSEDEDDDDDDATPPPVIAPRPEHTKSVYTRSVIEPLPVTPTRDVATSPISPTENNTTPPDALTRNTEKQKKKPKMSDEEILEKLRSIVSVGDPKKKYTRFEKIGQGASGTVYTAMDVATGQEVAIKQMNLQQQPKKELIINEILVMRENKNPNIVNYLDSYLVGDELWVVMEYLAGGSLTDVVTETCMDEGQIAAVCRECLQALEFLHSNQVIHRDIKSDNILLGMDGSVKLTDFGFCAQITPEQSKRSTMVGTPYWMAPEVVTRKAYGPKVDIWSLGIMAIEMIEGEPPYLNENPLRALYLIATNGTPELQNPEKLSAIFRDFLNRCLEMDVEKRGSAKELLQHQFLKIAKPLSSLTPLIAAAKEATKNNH

[8] = target: Serine/threonine-protein kinase pim-1 (Homo sapiens) (UniProt P11309); experiment: PIM1 SGC Tm panel (DSF); conditions: for ΔTm: Compound concentration 10.0 uM
Sequence of Serine/threonine-protein kinase pim-1 (Homo sapiens) (P11309 whole entry, looked up): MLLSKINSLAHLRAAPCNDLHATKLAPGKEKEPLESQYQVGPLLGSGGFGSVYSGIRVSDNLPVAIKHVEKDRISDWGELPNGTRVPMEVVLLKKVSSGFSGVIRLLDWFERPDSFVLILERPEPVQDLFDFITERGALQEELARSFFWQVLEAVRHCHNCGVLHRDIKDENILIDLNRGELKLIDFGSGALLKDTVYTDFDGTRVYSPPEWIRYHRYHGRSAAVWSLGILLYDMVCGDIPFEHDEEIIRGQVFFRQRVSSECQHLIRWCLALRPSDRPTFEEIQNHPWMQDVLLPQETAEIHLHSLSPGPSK

[9] = target: Serine/threonine-protein kinase 10 (Homo sapiens) (UniProt O94804); experiment: STK10 SGC Tm panel (DSF); conditions: for ΔTm: Compound concentration 10.0 uM
Sequence of Serine/threonine-protein kinase 10 (Homo sapiens) (O94804 whole entry, looked up): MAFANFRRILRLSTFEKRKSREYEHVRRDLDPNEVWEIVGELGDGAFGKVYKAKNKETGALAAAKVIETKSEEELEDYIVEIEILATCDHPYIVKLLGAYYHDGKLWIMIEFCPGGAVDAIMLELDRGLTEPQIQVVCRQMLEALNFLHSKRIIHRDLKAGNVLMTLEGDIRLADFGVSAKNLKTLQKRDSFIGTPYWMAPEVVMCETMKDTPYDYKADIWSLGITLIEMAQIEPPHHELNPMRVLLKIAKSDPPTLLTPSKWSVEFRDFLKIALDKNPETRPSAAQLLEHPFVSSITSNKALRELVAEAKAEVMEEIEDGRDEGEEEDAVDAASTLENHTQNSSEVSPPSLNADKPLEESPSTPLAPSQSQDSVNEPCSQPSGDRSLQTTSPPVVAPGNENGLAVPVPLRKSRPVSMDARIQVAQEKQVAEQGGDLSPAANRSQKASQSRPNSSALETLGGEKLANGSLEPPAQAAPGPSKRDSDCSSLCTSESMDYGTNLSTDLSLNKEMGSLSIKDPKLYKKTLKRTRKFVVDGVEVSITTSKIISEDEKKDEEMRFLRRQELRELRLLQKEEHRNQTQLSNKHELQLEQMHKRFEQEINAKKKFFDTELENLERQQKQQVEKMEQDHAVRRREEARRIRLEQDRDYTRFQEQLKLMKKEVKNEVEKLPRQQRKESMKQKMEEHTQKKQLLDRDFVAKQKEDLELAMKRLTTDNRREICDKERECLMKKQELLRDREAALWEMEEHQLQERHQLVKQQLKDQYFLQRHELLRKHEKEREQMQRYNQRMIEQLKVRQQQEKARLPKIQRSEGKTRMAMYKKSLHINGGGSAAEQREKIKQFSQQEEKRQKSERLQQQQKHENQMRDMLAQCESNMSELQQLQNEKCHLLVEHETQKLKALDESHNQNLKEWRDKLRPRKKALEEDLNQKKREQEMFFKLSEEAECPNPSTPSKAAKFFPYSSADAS

[10] = target: STE20-like serine/threonine-protein kinase (Homo sapiens) (UniProt Q9H2G2); experiment: SLK SGC Tm panel (DSF); conditions: for ΔTm: Compound concentration 10.0 uM
Sequence of STE20-like serine/threonine-protein kinase (Homo sapiens) (Q9H2G2 whole entry, looked up): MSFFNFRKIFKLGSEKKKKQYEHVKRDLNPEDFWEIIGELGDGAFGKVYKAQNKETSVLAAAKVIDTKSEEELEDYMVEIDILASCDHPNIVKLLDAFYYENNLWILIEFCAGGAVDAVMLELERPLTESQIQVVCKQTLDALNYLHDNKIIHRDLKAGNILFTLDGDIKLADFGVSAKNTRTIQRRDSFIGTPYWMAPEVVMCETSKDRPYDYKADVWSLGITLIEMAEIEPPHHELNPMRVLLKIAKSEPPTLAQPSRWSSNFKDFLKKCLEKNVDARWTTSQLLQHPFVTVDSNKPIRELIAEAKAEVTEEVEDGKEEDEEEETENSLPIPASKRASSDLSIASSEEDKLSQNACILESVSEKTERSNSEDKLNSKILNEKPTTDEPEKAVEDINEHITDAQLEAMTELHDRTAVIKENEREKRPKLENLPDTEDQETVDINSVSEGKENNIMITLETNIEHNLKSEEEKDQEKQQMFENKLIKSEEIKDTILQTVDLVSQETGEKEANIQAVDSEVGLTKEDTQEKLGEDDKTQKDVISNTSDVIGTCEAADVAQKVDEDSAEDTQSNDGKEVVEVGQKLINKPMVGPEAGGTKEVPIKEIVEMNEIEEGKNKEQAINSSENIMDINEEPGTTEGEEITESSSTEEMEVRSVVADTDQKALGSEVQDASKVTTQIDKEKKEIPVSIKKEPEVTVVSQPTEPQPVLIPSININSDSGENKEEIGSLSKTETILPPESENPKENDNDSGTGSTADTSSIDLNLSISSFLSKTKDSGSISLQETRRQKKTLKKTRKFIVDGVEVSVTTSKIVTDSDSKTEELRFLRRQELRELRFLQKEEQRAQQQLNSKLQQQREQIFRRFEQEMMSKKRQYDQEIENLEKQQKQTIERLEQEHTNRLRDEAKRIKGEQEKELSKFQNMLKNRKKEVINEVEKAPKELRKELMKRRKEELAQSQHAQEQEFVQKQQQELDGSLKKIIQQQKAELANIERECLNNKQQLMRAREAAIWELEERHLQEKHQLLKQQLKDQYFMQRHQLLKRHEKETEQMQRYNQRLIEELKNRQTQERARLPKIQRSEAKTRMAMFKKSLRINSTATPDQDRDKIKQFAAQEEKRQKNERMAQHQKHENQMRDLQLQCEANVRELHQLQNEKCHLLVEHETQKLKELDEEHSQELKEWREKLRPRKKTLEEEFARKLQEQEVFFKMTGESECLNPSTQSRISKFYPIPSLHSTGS

[11] = target: Bromodomain-containing protein 4 (Homo sapiens) (UniProt O60885); experiment: BRD4 SGC Tm panel (DSF); conditions: for ΔTm: Compound concentration 10.0 uM
[12] = target: 5-hydroxytryptamine receptor 1B (Homo sapiens) (UniProt P28222); conditions: Compound concentration 10.0 uM
[13] = target: Alpha-1A adrenergic receptor (Homo sapiens) (UniProt P35348); conditions: Compound concentration 10.0 uM
[14] = target: Alpha-1D adrenergic receptor (Homo sapiens) (UniProt P25100); conditions: Compound concentration 10.0 uM
[15] = target: Sigma intracellular receptor 2 (Homo sapiens) (UniProt Q5BJF2); conditions: Compound concentration 10.0 uM

| Compound | delta Tm Staurosporine positive control [1] | ΔTm [1] | delta Tm Staurosporine positive control [2] | ΔTm [2] | delta Tm Staurosporine positive control [3] | ΔTm [3] | delta Tm Staurosporine positive control [4] | ΔTm [4] | delta Tm Staurosporine positive control [5] | ΔTm [5] | delta Tm Staurosporine positive control [6] | ΔTm [6] | delta Tm Staurosporine positive control [7] | ΔTm [7] | delta Tm Staurosporine positive control [8] | ΔTm [8] | delta Tm Staurosporine positive control [9] | ΔTm [9] | delta Tm Staurosporine positive control [10] | ΔTm [10] | other results |
| --- | --- | --- | --- | --- | --- | --- | --- | --- | --- | --- | --- | --- | --- | --- | --- | --- | --- | --- | --- | --- | --- |
| COC[C@H](NC(=O)c1ccn(S(C)(=O)=O)c1)C(=O)Nc1nc(-c2cccc(-c3ccn(C)n3)c2)cs1 | 24.4 | 0.325 | 2.89 | 0.371 | 0.63 | -0.0136 | 6.35 | 0.54 | 7.41 | 0.595 | 19.1 | 1.12 | 7.66 | -0.233 | 11.9 | -0.353 | 22.7 | 0.244 | 12.2 | 1.33 | delta Tm Staurosporine positive control [11]: 1.03; ΔTm [11]: -0.843; inhibition [12]: 17.6%; inhibition [13]: 12.3%; inhibition [14]: 30.4%; inhibition [15]: 5.91% |
| C[C@H](NC(=O)c1cn(C2(C#N)CC2)cn1)C(=O)Nc1nc(-c2cccc(-c3ccn(C)n3)c2)cs1 | 24.4 | 0.609 | 2.89 | 0.38 | 0.63 | -0.0339 | 6.35 | 0.284 | 7.41 | 1.8 | 19.1 | 1.73 | 7.66 | 0.443 | 11.9 | -0.391 | 22.7 | 0.554 | 12.2 | 0.23 | delta Tm Staurosporine positive control [11]: 1.03; ΔTm [11]: -0.303; inhibition [12]: 27.4%; inhibition [13]: 15.2%; inhibition [14]: 42%; inhibition [15]: 2.43% |
